Consider one molecule from patent publication US20050020516A1, “Effects of combined administration of farnesyl transferase inhibitors and signal transduction inhibitors” (Whitehead Institute for Biomedical Research, priority 2000, published 2005).

pIC50: −log10 of the molar value.

One assay concerns BaF3-BCR/ABL cells. Description: Soft agar colony formation of BaF3-BCR/ABL cells. To be noted: Mus musculus, 240 h; BaF3-BCR/ABL cells in soft agar, colonies counted day 10; read-out: IC50, inhibition of soft agar colony number. It is filed as cell-based, murine.
The subject of assay [1] is STI-571 resistant BaF3-BCR/ABL cells. Description: Proliferation in liquid culture, viable cells by dye exclusion. To be noted: 0.5 or 1.0 μM STI-571 or increasing concentrations of SCH66336. Format: cell-based, murine. Here is the method: Viable cells were assessed at daily intervals by dye exclusion.
The subject of assay [2] is STI-571 resistant K562 cells. Briefly: Proliferation in liquid culture. It is filed as cell-based, human. As to conditions: STI-571 resistant K562, similar manner as parental line.
Assay [3] relates to STI-571 resistant AR230 cells. Description: Proliferation in liquid culture. It is filed as cell-based, human. As to conditions: STI-571 resistant AR230, similar manner as parental line.
Assay [4] relates to STI-571 resistant LAMA84 cells. Briefly: Proliferation in liquid culture. Format: cell-based, human. As to conditions: STI-571 resistant LAMA84, similar manner as parental line.
The subject of assay [5] is STI-571 resistant hematopoietic progenitors from CML patients. Description: Methylcellulose hematopoietic colony assay of primary cells from CML patients relapsed on STI-571. Format: cell-based. As to conditions: Homo sapiens, read-out: IC50, colony formation of STI-571 resistant hematopoietic progenitors. As for the experimental part: Numbers are normalized to control (DMSO) and are presented as means +/−S.D. of duplicate plates.
Low density mononucleocytes were isolated from either fresh or cryo-preserved peripheral blood using Lymphoprep (Nycomed, Oslo, Norway). […] All clonogenic assays were performed in duplicate.

Assay [6] concerns STI-571 sensitive or resistant BCR/ABL positive cell lines (BaF3-BCR/ABL, K562, LAMA-84, AR230). Briefly: Cell viability by trypan blue dye exclusion. Format: cell-based. To be noted: SCH66336 alone at concentrations up to 5 μM, STI-571 sensitive or resistant cell lines. Here is the method:
FIGS. 9A-9E are graphs showing that SCH66336 and STI571 in combination induce apoptosis in STI571 resistant cells. […] Viability of cells was assessed at daily intervals by dye exclusion.

Assay [7] has as its system parental BaF3-BCR/ABL cells. Description: Caspase-3 immunoblotting (cleavage of procaspase-3). To be noted: protein lysates of treated cells.
Experimental: (§1) Some cells were lysed and subjected to immunoblotting with caspase-3 antibody (FIG. 8A) or analyzed for annexin V staining (FIG. 8B) by FACS using the Apo-Alert kit (Clontech).
Cells were washed in cold PBS and lysed in NP-40 lysis buffer (1% NP-40, 150 mM NaCl, 20 mM Tris (pH 7.4), 10% glycerol, 10 mM NaVO3, 1 mM ZnCl2, 1 mM MgCl2, and 2 mM PMSF). Approximately 50 ug of protein were separated by SDS-PAGE and electrophoretically transferred to nitrocellulose membrane using standard protocols. Membranes were incubated with primary and secondary antibodies in TBST buffer (20 mM Tris-HCl [pH 7.4], 500 mM NaCl, 0.01% Tween 20) containing 5% dry milk. Immunoreactivity was detected by enhanced chemiluminescence.
Assay [8] deals with parental BaF3-BCR/ABL cells. Description: Apoptosis by annexin V staining (ApoAlert Annexin V kit, FACS). As to conditions: 2.0 uM SCH66336, 48 hours.
Experimental: as §1
Apoptosis was measured in cells after incubation with drugs by staining for annexin-positive cells using the ApoAlert Annexin V kit (Clontech, Palo Alto, Calif.). Flow cytometry analysis was performed using Cell Quest (Becton Dickinson, Franklin Lakes, N.J.).
Assay [9] concerns STI-571 resistant clone of a BaF3-BCR/ABL. Description: Soft agar colony formation of STI-571 resistant BaF3-BCR/ABL clone. To be noted: STI-571 resistant BaF3-BCR/ABL clone compared with parental cells.
Text: Macroscopic colonies were counted in duplicate plates on day 10. In some cases colony numbers were normalized by dividing the number of colonies under a given condition by the number of colonies formed in the presence of no drug (DMSO alone).

Take `NC(=O)N1CCC(CC(=O)N2CCC([C@H]3c4ncc(Br)cc4CCc4cc(Cl)cc(Br)c43)CC2)CC1` [SCH66336]: the pIC50 with BaF3-BCR/ABL cells is roughly 7.00; in [5] it was 6.30 to 6.60. Moreover, in [1], the “effect on growth / proliferation” value was “dose-dependent inhibition of proliferation”. Also, the effect on proliferation entry in assay [2], in [3] and in assay [4] was “inhibits the proliferation” in each case. Also, the “effect on cell viability” value in assay [6] is reported as “little effect on cell viability”. Besides, the “levels of active caspase-3 (immunoblot)” value in [7] is listed as “low levels of active caspase-3”. The “levels of annexin V staining” value in assay [8] was “Low levels of annexin V staining”. In addition, the “effect on soft agar colony formation of STI-571 resistant clone” value in [9] is recorded as “as sensitive, if not more so”.
